{
  "source": "paper PMC12833730",
  "about": "“Discovery of a First‐in‐Class Covalent Allosteric SHP1 Inhibitor with Immunotherapeutic Activity” (Angewandte Chemie (International Ed. in English), 2025)",
  "key": {"[1]": {"tested_on": "whole proteome in Jurkat T cells", "experiment": "Chemoproteomic maleimide-biotin competition", "format": "cell-based, human", "experimental": "To further define the selectivity of M029 for SHP1 and assess its cellular target engagement, a chemoproteomic investigation was performed to identify Cys residues protected by M029 from biotin‐tagged maleimide from the whole proteome in Jurkat T cells.^[ [79] ^] Since proteins labeled by M029 will be prevented from capture by the maleimide‐biotin probe, M029‐modified proteins can be readily identified by determining the ratio between the maleimide‐biotin‐bound proteins in the absence and presence of M029. […] The modest observed off‐target reactivity of M029 is not uncommon for targeted covalent inhibitors, including those FDA‐approved covalent drugs targeting EGFR (Osimertinib),^[ [80], [81] ^] BTK (Ibrutinib),^[ [82] ^] and KRAS (Sotorasib),^[ [83] ^] which also modify other proteins in addition to the intended targets. […]\nFor chemical proteomics studies, Cells were placed in 1 mL urea lysis buffer (100 mM Tris-HCl, pH 8, 8 M urea) and sonicated on ice for three 1-min rounds at 15% amplitude. […] Total protein concentrations were determined using the bicinchoninic acid (BCA) protein assay kit (Thermo Scientific Pierce, Rockford, IL). […]\nMal-biotin labeled peptides were diluted in 1 mL of PBS with 50 μL of High-Capacity NeutrAvidin slurry (Thermo Scientific). […] The peptide samples were analyzed by using an Evosep One LC coupled to a timsTOF HT mass spectrometer (Bruker). […]"}, "[2]": {"tested_on": "LCK, PLCγ and ERK1/2 phosphorylation in Jurkat T cells", "experiment": "TCR-LCK signaling immunoblot", "format": "cell-based", "details": "dose response", "experimental": "Supernatants from lysed cells were reduced, treated with iodoacetamide to cap thiol residues, and digested by trypsin for bottom‐up proteomics analysis. […] LCK is the direct substrate of SHP1 and ERK1/2, and PLCγ is the downstream effector protein of LCK‐mediated TCR signaling. […] Statistical analyses were performed with Graphpad Prism software 10.4.2 through the one‐way ANOVA test using Turkey post‐hoc comparison. ****p < 0.0001 was considered significant.\nTo further confirm M029 cellular target engagement, we investigated the effect of M029 on T cell function. SHP1 plays a negative role in T cells, and deletion of SHP1 in T cells lowers the activation threshold and enhances antitumor immunity.^[ [30], [31], [32], [33] ^] Mechanistically, SHP1 attenuates T cell receptor (TCR) signaling via dephosphorylation of the lymphocyte‐specific protein tyrosine kinase LCK.^[ [31], [84], [85], [86] ^] T cell activation leads to increased expression and secretion of interleukin 2 (IL‐2)^[ [87] ^] while the removal of SHP1 in T cells enhances IL‐2 production, cell proliferation, and cytolysis capacity.^[ [30], [32] ^] Accordingly, we sought to assess the impact of targeting SHP1 with M029 on TCR‐LCK signaling and T cell activation. […] M029 also dose‐dependently promoted IL‐2 production (Figure 4c). […] These findings corroborate that the observed increase in LCK phosphorylation and its downstream signaling indeed resulted from SHP1 inhibition by M029.\nImmunoblotting: Cultured cells were lysed with ice-cold lysis buffer (50 mM Tris, pH 8.0, 150 mM NaCl, 10% Glycerol, 1% Triton-X-100) supplied with phosphatase inhibitor (Bimake) and protease inhibitor mixture (Roche Applied Science). Equal amounts of protein were resolved by SDS-PAGE, transferred to a nitrocellulose membrane, and subjected to immunoblotting. […]"}},
  "note": "“Also recorded” adds a separate entry of the source.",
  "data": [
    {"smiles": "N#Cc1ccsc1NS(=O)(=O)c1ccc(NC(=O)CCl)cc1", "note": "[M029, 2-Chloro-N-(4-(N-(3-cyanothiophen-2-yl)sulfamoyl)phenyl)acetamide]", "values": [
      {"measurement": "rank of SHP1 (Cys480) among M029-labeled proteins", "setting": "[1]; >2700 peptide fragments identified", "result": "second most"},
      {"measurement": "number of proteins significantly blocked from maleimide modification", "setting": "[1]; cutoff 10-fold, p 0.05", "result": "five"},
      {"measurement": "TCR-mediated phosphorylation of LCK, PLCγ and ERK1/2", "setting": "[2]", "result": "upregulation; also recorded: dose dependently increased"}
    ]}
  ]
}
